The record followed here is PubChem BioAssay AID2305 (GlaxoSmithKline (GSK), 2010).

Several values for one entry are separate records, joined by “and”; a condition that tells them apart may be missing. Identical values can stand only once.

This assay relates to P. falciparum 3D7 growth, pLDH absorbance. The experiment in a line: P. falciparum 3D7 growth inhibition, dose response, strain 3D7 (AID 2305).

For the compound `CC(C)(C)c1cc(C(=O)N2CCN(c3ncnc4ccsc34)CC2)n(Cc2ccccc2)n1`, the IC50 (as a rule, the concentration that inhibits the measured activity by half) is 910 nM. Next, `CC(C)c1ccc(NC(=O)NC2CCN(CCCCCN(C)C(=O)/C=C/c3ccc(Cl)c(Cl)c3)C2)cc1` (centres undefined): 830 nM; `CCN(CC)CCN(CCCc1ccc(-c2ccc(C(F)(F)F)cc2)cc1)C(=O)Cn1c(CCc2cccc(F)c2F)nc(=O)c2ccccc21`: 770 nM.

`Cc1ccc(C(NC(=O)c2ccccc2)c2ccc3cccnc3c2O)cc1` (centres undefined) registered an IC50 of 960 nM. Next, `CC1(C)N=C(N)N=C(N)N1OCCCOc1ccc(N)cc1`: 10 nM. The same measure for `O=C(Nc1ccc(C(F)(F)F)cc1)c1ccc(S(=O)(=O)NC2CCCN(CC3CCCCC3)C2)cc1` (centres undefined): 720 nM; for `Cc1ccccc1C1=CCN(CCCN2c3ccccc3Sc3ccc(Cl)cc32)CC1`: 870 nM; for `COc1ccc(CON2C(N)=NC(N)=NC2(C)C)cc1OC`: 10 nM.

Compound `CCC(=O)Nc1cc(=O)[nH]c2nc(-c3ccc(Cl)cc3)nn12` returned an IC50 of 570 nM.

In the case of `COc1ccc2nc(C)cc(NN=Cc3ccccc3F)c2c1`, the IC50 came out at 370 nM. Next, `COc1ccc2nccc(NN=Cc3ccc(F)cc3)c2c1`: 720 nM.

Compound `COC(=O)C1(NC(=O)c2ccc(-n3nc(C)c(-c4ccccc4)c3N)cc2)CCCC1` came in with an IC50 of 370 nM. Take `Cc1cccc2[nH]c(-c3cccc(-c4cccc(CNCCNC(=O)c5ccnn5C)c4)c3)nc12`: the IC50 turned out to be 190 nM. The same measure for `N#CC(CC(=O)c1ccc(Cl)cc1)c1cccc(F)c1` (centres undefined): 850 nM; for `CCN(CCCN1CCCCC1)c1cc(C)nc(Nc2cc(Br)ccc2C)n1`: 410 nM. Turning to `Fc1ccc2nc(-c3cccc(-c4ccc(CN5CCN(c6ccncc6)CC5)cc4)c3)[nH]c2c1`, the IC50 amounted to 210 nM. The same measure for `Cc1ccc([C@@H]2CC(=O)CC(c3ccccn3)[C@H]2[N+](=O)[O-])cc1` (some centres undefined): 860 nM; for `COc1ccc(-c2ccc(CN(C)C3CCC(NC(=O)c4cc5ccccc5[nH]4)CC3)cc2)cn1` (centres undefined): 870 nM. Turning to `O=C(/C=C/c1ccc(-c2ccccc2)cc1)NCCCCCN1CCC(c2c[nH]c3ccccc23)CC1`, the IC50 was determined as 850 nM. Next, `O=C(OCc1ccccc1)N1CCc2c([nH]c3ccccc23)C1CCC(F)(F)F` (centres undefined): 420 nM. `Cc1cc(-c2cccc3c(C(=O)N4CCc5cc6nccc(N7CCCN(C)CC7)c6cc54)cccc23)cc(C)n1` yielded an IC50 of 440 nM.

`CC(C)(C)c1cc(N=NC(=O)c2ccncc2)cc(C(C)(C)C)c1O` displayed an IC50 of 700 nM. The same measure for `CC(C)Cn1c(Sc2ccc(C#N)c([N+](=O)[O-])c2)nnc1-c1cccs1`: 1080 nM.

Take `Cc1ccc(O)c(CN2CCCC(COC(c3ccc(F)cc3)c3ccc(F)cc3)C2)c1` (centres undefined): the IC50 came out at 710 nM. The same measure for `COc1cccc(CCNc2nc(NCc3ccccc3)c3cc(OC)c(OC)cc3n2)c1`: 320 nM. Next, `COc1cccc(NC(=O)NC2CCN(c3ccnc(Nc4cc(OC)c(OC)c(OC)c4)n3)C2)c1` (centres undefined): 860 nM. The same measure for `CC(C)(CNC(=O)[C@@H]1CCCCN1)c1nc(-c2ccc(Cl)c(O)c2)c(-c2ccncc2)[nH]1`: 840 nM. On to `O=C(CC(c1ccccc1)c1ccccc1O)N1CCOCC1` (centres undefined), for which the IC50 was determined as 1520 nM.

Take `Cc1c(-c2cccc(CNCCc3ccc(Cl)cc3)c2)cnc(N)c1C`: the IC50 worked out at 1040 nM.

In turn, `CC1(C)N=C(N)N=C(N)N1c1cccc(Cl)c1` displayed an IC50 of 40 nM. In the case of `Oc1ccc(Nc2nc(N3CCCC3)c3ccccc3n2)cc1`, the IC50 was determined as 270 nM.

As for `O=C(Nc1ccc2c(c1)CCN2C1CCN(Cc2ccc(F)cc2Cl)C1)c1ccco1` (centres undefined), the IC50 amounted to 470 nM. Next, `CCNc1cc(C(=O)N[C@@H](Cc2ccccc2)[C@H](O)CN[C@@H](C)c2cccc(OC)c2)cc(N2CCCC2=O)c1`: 770 nM; `COc1ccc(C(=O)NCc2ccccc2-c2ccc(C(C)(C)C)cc2)cc1O`: 100 nM. As to `O=C(Nc1ccc(OC2CCN(Cc3ccc(F)cc3)C2)c(Cl)c1)c1ccsc1` (centres undefined), the IC50 is 540 nM. The same measure for `O=C(/C=C/c1ccc(Cl)c(Cl)c1)NC1CCC(CN2CCC(c3c[nH]c4ccc(O)cc34)CC2)CC1` (centres undefined): 140 nM and 420 nM.

`COc1ccc2nccc([C@@H](O)CN3CCC(NC(=O)/C=C/c4c[nH]c5c(C)cccc45)CC3)c2c1` returned an IC50 of 130 nM. Next, `CCOCCCn1c(=N)c(C(=O)NCc2ccc(F)cc2)cc2c(=O)n3cccc(C)c3nc21`: 530 nM; `Cc1nc(C)n(CC(=O)Nc2cccc(-c3cccc(-c4nc5ccc(C(F)(F)F)cc5[nH]4)c3)c2)n1`: 760 nM; `NOCCCCOc1cc(Cl)c(Cl)cc1Cl`: 170 nM. Next, `Cn1c(=N)n(CC(=O)N2CCc3ccc(Cl)cc3C2Cc2ccc(Cl)c(Cl)c2)c2ccccc21` (centres undefined): 870 nM; `COc1cc(Br)c(NC(=O)Nc2ccc(C(F)(F)F)c(O[C@@H]3CCN(C)C3)c2)cc1OC`: 630 nM; `NOCCCCOc1ccc(Br)cc1`: 190 nM.

In turn, `CN(Cc1cccc(F)c1)C1CCN(c2cc(NC(=O)c3ccc(F)cc3)ccn2)CC1` yielded an IC50 of 1160 nM.
